The record followed here is patent US20210380548A1, “Fused [1,2,4]Thiadiazine Derivatives Which Act as KAT Inhibitors of the MYST Family” (CTxT Pty Limited, priority 2017, published 2021).

SMILES strings stand for the structures.

Test [1] concerns histone H3 Lysine 14 acetylation (HBO1 mediated) in U2OS cells. As to the kind of experiment: Histone H3 Lysine 14 Acetylation Biomarker Assay (384-well, U2OS). In kind it is cell-based. The note with it: Homo sapiens, serum free medium, 24 hours incubation. As to the method:
Compounds may be tested for their ability to inhibit acetylation of the histone H3 Lysine 14 (which is HBO1 mediated) marker in the following assay:
The cell line U2OS was seeded at a density of 3,000 cells per well in 384-well optical quality tissue culture plates in RPMI medium supplemented with 10% foetal bovine serum and 10 mM Hepes. The cells were allowed to adhere for 24 hours under standard culture conditions (37 degree Celsius, 5% CO2). At the end of this period the cells were washed with serum free medium. Compound dilutions prepared in DMSO were added to the serum free medium, with negative control wells reserved for treatment with DMSO only and 100% inhibition positive controls receiving a potent inhibitor compound (e.g. (Z)-4-fluoro-N-((3-hydroxyphenyl)sulfonyl)-5-methyl-[1,1′-biphenyl]-3-carbohydrazonic acid) at 10 μM concentration. After incubation for 24 hours, the cells were fixed with 4% formaldehyde in PBS for 15 minutes at room temperature, washed with phosphate buffer saline and blocked with blocking buffer containing 0.2% TritonX100 and 2% BSA. Anti-H3K14ac specific antibody (Cell Signalling Technologies) in blocking buffer was added and incubated overnight at 4 degree Celsius. After washing, a secondary antibody labelled with AlexaFluor 488 dye (ThermoFisher) and Hoechst 33342 (1 μg/mL, Life Technologies) were added for 2 hours incubation at room temperature. Plates were washed and read on a
PerkinElmer Opera HCS high content imaging platform. Using a Columbus image analysis pipeline, individual nuclei were located by Hoechst 33342 stain and the acetylation level was calculated from the AlexaFluor 488-related intensity in the same area. The resulting mean intensity per cell was converted to percent inhibition relative to controls on the same plate and the data fitted against a four-parameter logistic model to determine the 50% inhibitory concentration (IC50).

The target of test [2] is T1, MOF-KAT8 (Homo sapiens, UniProt Q9H7Z6).
T1 sequence (Q9H7Z6 177-447): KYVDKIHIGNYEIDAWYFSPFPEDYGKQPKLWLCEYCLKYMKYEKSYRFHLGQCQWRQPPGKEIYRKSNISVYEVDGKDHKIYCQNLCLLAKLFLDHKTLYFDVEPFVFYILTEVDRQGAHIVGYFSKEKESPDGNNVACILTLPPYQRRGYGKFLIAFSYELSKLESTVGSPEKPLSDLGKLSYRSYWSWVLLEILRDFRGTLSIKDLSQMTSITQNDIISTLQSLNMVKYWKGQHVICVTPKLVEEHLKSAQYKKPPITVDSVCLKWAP
Description: Revised Acetyltransferase Biochemical Assay, KAT8.

Test [3] addresses T2, HBO-KAT7 (Homo sapiens, UniProt O95251).
T2 construct: encoding amino acid residues 325 to 611 (Uniprot 095251-1) of human KAT7; made in house; host or cells: E. coli BL21 DE3 RIL
As to the kind of experiment: Revised Acetyltransferase Biochemical Assay, KAT7. The settings on record: Table 9 (HBO-KAT7), 1 μM Acetyl coenzyme A.

The next test has as its target T3, TIP60-KAT5 (Homo sapiens, UniProt Q92993).
T3 construct: encoding amino acid residues 2 to 461 (Uniprot Q92993-2) of human KAT5 isoform; made in house; host or cells: E. coli BL21 DE3
As to the kind of experiment: Revised Acetyltransferase Biochemical Assay, KAT5. The note with it: 10 nM KAT5, 1 μM AcCoA, 100 nM histone H4, 90 min.

Test [4] addresses T1, MOF-KAT8. As to the kind of experiment: Acetyltransferase biochemical assay (AlphaScreen), KAT8. The settings on record: Table 4 (MOF-KAT8); 0.4 μM Acetyl coenzyme A, histone H4, 20 nM enzyme.
Test [5] deals with histone H2A.Z Lysine 7 acetylation (TIP60 mediated) in U2OS cells. As to the kind of experiment: H2A.Z Lysine 7 Acetylation Biomarker Assay (384-well, U2OS). Type of test: cell-based. The note with it: Homo sapiens, serum free medium, 24 hours incubation. As to the method: Compounds may be tested for their ability to inhibit the histone H2A.Z Lysine 7 acetylation marker (which is TIP60 mediated) in the following assay:
The cell line U2OS was seeded at a density of 3,000 cells per well in 384-well optical quality tissue culture plates in RPMI medium supplemented with 10% foetal bovine serum and 10 mM Hepes. The cells were allowed to adhere for 24 hours under standard culture conditions (37 degree Celsius, 5% CO2). At the end of this period the cells were washed with serum free medium. […] After incubation for 24 hours, the cells were fixed with 4% formaldehyde in PBS for 15 minutes at room temperature, washed with phosphate buffer saline and blocked with blocking buffer containing 0.2% TritonX100 and 2% BSA. Anti-H2A.ZK7ac specific antibody (Abcam) in blocking buffer was added and incubated overnight at 4 degree Celsius. After washing, a secondary antibody labelled with AlexaFluor 488 dye (ThermoFisher) and Hoechst 33342 (1 μg/mL, Life Technologies) were added for 2 hours incubation at room temperature. Plates were washed and read on a PerkinElmer Opera HCS high content imaging platform. Using a Columbus image analysis pipeline, individual nuclei were located by Hoechst 33342 stain and the acetylation level was calculated from the AlexaFluor 488-related intensity in the same area. The resulting mean intensity per cell was converted to percent inhibition relative to controls on the same plate and the data fitted against a four-parameter logistic model to determine the 50% inhibitory concentration (IC50).

The target in the next test is T4, MOZ-KAT6A (Homo sapiens, UniProt Q92794, A567V).
T4 construct: encoding amino acid residues 507 to 778 (Uniprot Q92794-1) of human KAT6A; made in house; host or cells: E. coli BL21 DE3
Description: Revised Acetyltransferase Biochemical Assay, KAT6A. The note with it: Table 8 (MOZ-KAT6A), 1 μM Acetyl coenzyme A.

Test [6] deals with T2, HBO-KAT7. As to the kind of experiment: Acetyltransferase biochemical assay (AlphaScreen), KAT7. The settings on record: Table 3 (HBO-KAT7); 0.4 μM Acetyl coenzyme A, histone H3.1, 40 nM enzyme.

T4 sequence (Q92794 507-778 A567V limits assumed): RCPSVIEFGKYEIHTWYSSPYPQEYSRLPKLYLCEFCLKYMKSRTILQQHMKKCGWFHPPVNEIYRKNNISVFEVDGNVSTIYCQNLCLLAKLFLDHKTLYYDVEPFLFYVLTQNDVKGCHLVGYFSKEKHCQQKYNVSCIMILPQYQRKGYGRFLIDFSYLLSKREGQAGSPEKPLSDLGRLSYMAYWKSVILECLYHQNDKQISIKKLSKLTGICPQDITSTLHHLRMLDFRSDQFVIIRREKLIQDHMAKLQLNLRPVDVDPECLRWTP
T3 sequence (Q92993 2-461 isoform Q92993-2): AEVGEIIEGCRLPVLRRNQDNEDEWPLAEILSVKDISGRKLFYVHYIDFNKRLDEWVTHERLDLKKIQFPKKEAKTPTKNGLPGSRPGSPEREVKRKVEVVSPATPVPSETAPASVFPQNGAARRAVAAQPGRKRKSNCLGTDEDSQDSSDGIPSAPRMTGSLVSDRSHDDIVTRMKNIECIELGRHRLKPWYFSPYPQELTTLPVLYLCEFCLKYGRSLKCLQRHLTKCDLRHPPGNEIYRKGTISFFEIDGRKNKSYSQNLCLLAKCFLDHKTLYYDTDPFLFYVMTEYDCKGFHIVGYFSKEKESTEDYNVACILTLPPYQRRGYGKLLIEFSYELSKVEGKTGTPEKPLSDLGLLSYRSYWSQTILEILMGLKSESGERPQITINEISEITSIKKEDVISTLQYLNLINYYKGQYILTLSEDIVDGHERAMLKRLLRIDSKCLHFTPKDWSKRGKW
T2 sequence (O95251 with tags, fused parts or gaps): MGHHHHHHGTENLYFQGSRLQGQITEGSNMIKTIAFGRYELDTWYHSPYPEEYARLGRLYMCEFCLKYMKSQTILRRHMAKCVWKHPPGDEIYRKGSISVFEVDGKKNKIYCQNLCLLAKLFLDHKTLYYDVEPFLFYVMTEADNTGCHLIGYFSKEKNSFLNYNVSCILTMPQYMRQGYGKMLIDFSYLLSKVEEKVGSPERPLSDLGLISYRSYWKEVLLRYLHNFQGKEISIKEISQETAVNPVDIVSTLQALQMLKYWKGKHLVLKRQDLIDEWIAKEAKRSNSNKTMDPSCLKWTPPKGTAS

Usually IC50 stands for the concentration at which inhibition is half-maximal. Low readings indicate greater potency, high ones weaker potency. Regarding `O=C(NCC(c1cccc(Cl)c1)c1ncco1)C1=Nc2ccc(Cl)cc2S(=O)(=O)N1` (stereo not drawn) [Example 162], the IC50 stood at 6520 nM in test [1]; 34500 nM against MOF-KAT8 [2]; 512 nM at HBO-KAT7 [3]; 1540 nM at TIP60-KAT5; 4200 nM at MOF-KAT8 [4]; 10900 nM in test [5]. This molecule also showed an IC50 against MOZ-KAT6A of 29 nM.
As to `O=C(NCC(c1ccc(F)cc1)c1ncco1)C1=Nc2ccc(I)cc2S(=O)(=O)N1` (stereo not drawn) [Example 164], the IC50 stood at 2080 nM in test [1]; 34400 nM against MOF-KAT8 [2]; 242 nM against HBO-KAT7 [3]; 781 nM at TIP60-KAT5; 29600 nM at MOF-KAT8 [4]; 2820 nM in test [5]. This molecule also had an IC50 against MOZ-KAT6A of 17 nM.
Turning to `Cc1ccc(C(CNC(=O)C2=Nc3ccc(I)cc3S(=O)(=O)N2)c2ncco2)cc1` (stereo not drawn) [Example 169], the IC50 in test [1] worked out at 1300 nM; at MOF-KAT8 [2], 43700 nM; on HBO-KAT7 [3], 386 nM; against TIP60-KAT5, 412 nM; against MOF-KAT8 [4], 5140 nM; in test [5], 9880 nM. This molecule also had an IC50 at MOZ-KAT6A of 23 nM.
As to `COCc1nnc(C(CNC(=O)C2=Nc3ccc(I)cc3S(=O)(=O)N2)c2ccccc2)o1` (stereo not drawn) [Example 171], the IC50 in test [1] is 10400 nM; at MOF-KAT8 [2] it was greater than 125000 nM; on HBO-KAT7 [3], 785 nM; at TIP60-KAT5, 1160 nM; at MOF-KAT8 [4], 41700 nM; in test [5], greater than 40000 nM. At MOZ-KAT6A, this molecule came in with an IC50 of 24 nM.
For `COc1cccc(C(CNC(=O)C2=Nc3ccc(Cl)cc3S(=O)(=O)N2)c2ncco2)c1` (stereo not drawn) [Example 176, 7-chloro-N-(2-(3-methoxyphenyl)-2-(oxazol-2-yl)ethyl)-2H-benzo[e][1,2,4]thiadiazine-3-carboxamide 1,1-dioxide], the IC50 in test [1] came out at 4430 nM; at MOF-KAT8 [2] it was 30200 nM; against HBO-KAT7 [6] it was 207 nM; at HBO-KAT7 [3] it was 869 nM; against TIP60-KAT5, 5110 nM; at MOF-KAT8 [4], 92900 nM. The IC50 in test [5] turned out to be 15400 nM; at MOZ-KAT6A it was 76 nM.
As to `COc1cccc(C(CNC(=O)C2=Nc3ccc(I)cc3S(=O)(=O)N2)c2ncco2)c1` (stereo not drawn) [Example 187, 7-iodo-N-(2-(3-methoxyphenyl)-2-(oxazol-2-yl)ethyl)-2H-benzo[e][1,2,4]thiadiazine-3-carboxamide 1,1-dioxide], the IC50 in test [1] was 491 nM; against MOF-KAT8 [2], 14100 nM; against HBO-KAT7 [3], 115 nM; at TIP60-KAT5, 242 nM; at MOF-KAT8 [4], 22800 nM; in test [5] it was 5460 nM. At MOZ-KAT6A, this molecule had a 50% inhibitory concentration (IC50) of 15 nM.
As for `Nc1nnc(C(CNC(=O)C2=Nc3ccc(I)cc3S(=O)(=O)N2)c2ccccc2)o1` (stereo not drawn) [Example 189], the IC50 in test [1] was greater than 20000 nM; on MOF-KAT8 [2] it was 28700 nM; on HBO-KAT7 [3], 214 nM; against TIP60-KAT5, 2850 nM; at MOF-KAT8 [4], 7960 nM; in test [5] it was greater than 40000 nM. The IC50 on MOZ-KAT6A came to 75 nM.
For `O=C(NCCc1ccccc1-n1ncc(CO)n1)C1=Nc2ccc(I)cc2S(=O)(=O)N1` [Example 190, N-(2-(4-(hydroxymethyl)-2H-1,2,3-triazol-2-yl)phenethyl)-7-iodo-2H-benzo[e][1,2,4]thiadiazine-3-carboxamide 1,1-dioxide], the IC50 in test [1] came out at 4950 nM; at MOF-KAT8 [2] it was 68400 nM; at HBO-KAT7 [3] it was 414 nM; at TIP60-KAT5, 303 nM; on MOF-KAT8 [4], 48900 nM; in test [5], 31100 nM. Besides, the IC50 against MOZ-KAT6A came out at 8 nM.
For `O=C(NCC(c1cccc(O)c1)c1ncco1)C1=Nc2ccc(Br)cc2S(=O)(=O)N1` (stereo not drawn) [Example 214, 7-Bromo-N-(2-(3-hydroxyphenyl)-2-(oxazol-2-yl)ethyl)-2H-benzo[e][1,2,4]thiadiazine-3-carboxamide 1,1-dioxide], the IC50 in test [1] is 3600 nM; on MOF-KAT8 [2], 20100 nM; on HBO-KAT7 [3] it was 50 nM; against TIP60-KAT5, 70 nM; at MOF-KAT8 [4] it was 7060 nM; in test [5] it was 8780 nM. This molecule showed an IC50 against MOZ-KAT6A of 9 nM.
As to `O=C(NCC(c1cccc(O)c1)c1ncco1)C1=Nc2ccc(Cl)cc2S(=O)(=O)N1` (stereo not drawn) [Example 216, 7-Chloro-N-(2-(3-hydroxyphenyl)-2-(oxazol-2-yl)ethyl)-2H-benzo[e][1,2,4]thiadiazine-3-carboxamide 1,1-dioxide], the IC50 is 14100 nM in test [1]; 58600 nM against MOF-KAT8 [2]; 63 nM at HBO-KAT7 [6]; 152 nM at HBO-KAT7 [3]; 506 nM at TIP60-KAT5; 64300 nM against MOF-KAT8 [4]. In addition, the results for the IC50 (in test [5]; against MOZ-KAT6A) were 15900 nM and 28 nM, respectively.
As for `O=C(NCC(c1cccc(OCC2CC2)c1)c1ncco1)C1=Nc2ccc(I)cc2S(=O)(=O)N1` (stereo not drawn) [Example 217, N-(2-(3-(Cyclopropylmethoxy)phenyl)-2-(oxazol-2-yl)ethyl)-7-iodo-2H-benzo[e][1,2,4]thiadiazine-3-carboxamide 1,1-dioxide], the concentration for half-maximal inhibition (IC50) is 1290 nM in test [1]; 1740 nM at HBO-KAT7 [6]; 1190 nM at HBO-KAT7 [3]; 1460 nM against TIP60-KAT5; 22500 nM on MOF-KAT8 [4]; 32100 nM in test [5]. Also, it took 265 nM to reach half-maximal inhibition at MOZ-KAT6A (IC50).
In the case of `O=C(NCC(c1ncco1)c1ccccc1O)C1=Nc2ccc(I)cc2S(=O)(=O)N1` (stereo not drawn) [Example 228, N-(2-(2-Hydroxyphenyl)-2-(oxazol-2-yl)ethyl)-7-iodo-2H-benzo[e][1,2,4]thiadiazine-3-carboxamide 1,1-dioxide], the IC50 in test [1] was found to be 3250 nM; against MOF-KAT8 [2], 9660 nM; against HBO-KAT7 [3], 92 nM; against TIP60-KAT5 it was 111 nM; against MOF-KAT8 [4] it was 6520 nM; in test [5], 5710 nM. For the same molecule, the IC50 on MOZ-KAT6A turned out to be 7 nM.
For `Cc1ccccc1C(CNC(=O)C1=Nc2ccc(I)cc2S(=O)(=O)N1)c1ncco1` (stereo not drawn) [Example 237, 7-iodo-N-(2-(oxazol-2-yl)-2-(o-tolyl)ethyl)-2H-benzo[e][1,2,4]thiadiazine-3-carboxamide 1,1-dioxide], the IC50 is 498 nM in test [1]; 15300 nM at MOF-KAT8 [2]; 121 nM against HBO-KAT7 [3]; 163 nM at TIP60-KAT5; 6350 nM on MOF-KAT8 [4]; 3410 nM in test [5]. Besides, the 50% inhibitory concentration (IC50) on MOZ-KAT6A came to 10 nM.
